Experiments:
Format in all cases: physicochemical
[1] = Densification of excipients, comparison of compacted particles with like weights of non-densified starting materials; conditions: compacted at 10,000 lbs/in^2 for 30 seconds, ground, sieved > about 50 μm
Procedure: Finely ground powders of pharmaceutical grade mannitol and lactose were obtained and reprocessed using the method of the invention. Particularly, approximately 30 to 50 mg of mannitol or lactose were compacted under pressure using a Carver Laboratory Pellet Press (Model 3620, available from Carver, Inc., Wabash, Ind.). The pressure of compaction was 10,000 lbs/in^2 which was applied for approximately 30 seconds. The resulting compacted pellets were ground using mortar and pestle until visually broken up, and then sieved to select for particles having a size greater than about 50 μm using the methods described in Example 3.

[2] = Absolute density by helium pycnometry
Procedure: (§1) Trehalose 45H3830 (Sigma) and mannitol K91698380-703 (Merck) were either sieved, or freeze dried, compacted, ground and then sieved. A range of the resulting preparations were then analyzed for particle size and density measurements.
(§2) Portions of each sugar excipient were sieved to obtain preparations having reduced particle sizes. Sieving was carried out using stainless steel sieves for two hours at 3 mm amplitude using three sieve sizes (75 μm, 53 μm and 38 μm) without additional processing.
(§3) Alternatively, portions of each sugar excipient were processed using the methods of the invention as follows. 40 g of each of the sugars was dissolved in water, flash frozen, and then freeze dried over night. Samples of each freeze dried preparation were retained, and the remainder compacted in a 13 mm compression die (15,000 lbs/inch^2 for 45 seconds) into discs. The mannitol discs were ground using mortar and pestle, and then sieved as described above at 3 mm amplitude, using three sieve sizes. The trehalose discs were first ground in a vibratory ball mill (Retsch mill), then ground by mortar and pestle and sieved as above.
(§4) Samples from each of the above-described excipient preparations were then analyzed for absolute and envelope density. Absolute density was determined using helium pycnometry, and envelope density was determined using a GeoPyc™ Model 1360 Envelope Density Analyzer (Micromeritics Instrument Corp.).

[3] = Envelope density by GeoPyc Model 1360 Envelope Density Analyzer; conditions: for change of envelope density by compression, milling, sieving: relative to both the freeze-dried and the sieved preparations
Procedure: as §1, §2, §3, §4

[4] = pretreatment: Freeze Dried, Compressed, Milled, Sieved

Row | Density Absolute ([2]; pretreatment: Freeze Dried) | Density Absolute [2, 4] | Density Absolute ([2]; pretreatment: Sieved) | Density Envelope ([3]; pretreatment: Freeze Dried) | Density Envelope [3, 4] | Density Envelope ([3]; pretreatment: Sieved) | change of envelope density by compression, milling, sieving [3] | Structure (SMILES) | size of compacted particles versus like weights of non-densified starting materials [1]
1 | 1.5 g/mL | 1.5 g/mL | 1.5 g/mL | 0.3 g/mL | 0.8 g/mL | 0.5 g/mL | significant increase in envelope density | OC[C@@H](O)[C@@H](O)[C@H](O)[C@H](O)CO [Mannitol] | a significant size reduction was observed
2 | – | – | – | – | – | – | – | OC[C@H]1O[C@@H](O[C@H]2[C@H](O)[C@@H](O)C(O)O[C@@H]2CO)[C@H](O)[C@@H](O)[C@H]1O (stereo partly shown) [lactose] | a significant size reduction was observed
3 | 1.5 g/mL | 1.5 g/mL | 1.5 g/mL | 0.3 g/mL | 0.8 g/mL | 0.5 g/mL | significant increase in envelope density | OC[C@H]1O[C@H](O[C@H]2O[C@H](CO)[C@@H](O)[C@H](O)[C@H]2O)[C@H](O)[C@@H](O)[C@@H]1O [Trehalose] | –
